A word on the IC50: it is the concentration that inhibits the measured activity by half. Read a high IC50 as weaker potency in that assay.

Molecules are shown by their SMILES. Where only a bound is given, the exact number is not on record here.

We go through six compounds from ChEMBL document CHEMBL1144308, “Novel CDK inhibition profiles of structurally varied 1-aza-9-oxafluorenes” (Bioorg Med Chem Lett, 2005).

Assay type in all cases: protein-complex assay; call rule not given here
The target in assay [1] is Cyclin-dependent kinase 1/cyclin B1 (Homo sapiens, UniProt P06493). The experiment in a line: Inhibitory concentration tested against Cyclin dependant kinase 1-cyclinB.
Sequence of Cyclin-dependent kinase 1/cyclin B1 (P06493 whole entry): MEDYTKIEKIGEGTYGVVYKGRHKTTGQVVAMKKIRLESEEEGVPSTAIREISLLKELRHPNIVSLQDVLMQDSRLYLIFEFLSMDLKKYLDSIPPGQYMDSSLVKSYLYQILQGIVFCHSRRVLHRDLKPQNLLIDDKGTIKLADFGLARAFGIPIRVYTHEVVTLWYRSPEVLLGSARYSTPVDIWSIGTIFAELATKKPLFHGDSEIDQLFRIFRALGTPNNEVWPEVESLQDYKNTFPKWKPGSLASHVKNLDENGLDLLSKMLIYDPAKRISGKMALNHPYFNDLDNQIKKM
Sequence of Cyclin-dependent kinase 1/cyclin B1 (P14635 whole entry, further chain): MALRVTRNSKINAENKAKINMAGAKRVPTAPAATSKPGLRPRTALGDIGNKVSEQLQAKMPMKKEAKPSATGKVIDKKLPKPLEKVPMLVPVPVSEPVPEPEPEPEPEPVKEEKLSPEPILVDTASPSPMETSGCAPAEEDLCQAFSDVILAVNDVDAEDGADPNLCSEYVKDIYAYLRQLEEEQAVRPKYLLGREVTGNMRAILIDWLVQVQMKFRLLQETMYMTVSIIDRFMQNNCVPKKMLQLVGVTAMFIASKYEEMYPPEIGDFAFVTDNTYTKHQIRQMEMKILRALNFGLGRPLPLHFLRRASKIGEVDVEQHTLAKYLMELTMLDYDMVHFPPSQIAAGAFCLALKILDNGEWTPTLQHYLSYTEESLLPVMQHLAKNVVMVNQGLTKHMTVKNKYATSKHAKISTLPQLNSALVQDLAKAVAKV
Assay [2] concerns the target T1, Cyclin-dependent kinase 4/cyclin D1 (Homo sapiens, UniProt P11802). Briefly: Inhibitory concentration tested against Cyclin dependant kinase 4-cyclinD1; ND: not determined.
Assay [3] addresses T2, Cyclin-dependent kinase 2/cyclin E1 (Homo sapiens, UniProt P24941). Briefly: Inhibitory concentration tested against Cyclin dependant kinase 2-cyclinE; ND: not determined.
In assay [4] the target is Cyclin-dependent kinase 5/CDK5 activator 1 (Homo sapiens, UniProt Q00535+Q15078). Briefly: Inhibitory concentration tested against Cyclin-dependent kinase 5; NA: not active.
Sequence of Cyclin-dependent kinase 5/CDK5 activator 1 (Homo sapiens, UniProt Q00535+Q15078) (Q00535 whole entry): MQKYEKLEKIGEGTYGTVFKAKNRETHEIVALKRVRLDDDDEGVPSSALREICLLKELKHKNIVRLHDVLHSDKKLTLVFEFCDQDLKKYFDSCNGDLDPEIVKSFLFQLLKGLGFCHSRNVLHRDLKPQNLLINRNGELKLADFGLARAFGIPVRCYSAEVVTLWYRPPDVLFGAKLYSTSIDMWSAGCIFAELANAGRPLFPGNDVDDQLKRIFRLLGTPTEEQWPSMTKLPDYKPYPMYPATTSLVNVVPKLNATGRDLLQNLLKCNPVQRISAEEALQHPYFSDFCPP
Sequence of Cyclin-dependent kinase 5/CDK5 activator 1 (Homo sapiens, UniProt Q00535+Q15078) (Q15078 whole entry): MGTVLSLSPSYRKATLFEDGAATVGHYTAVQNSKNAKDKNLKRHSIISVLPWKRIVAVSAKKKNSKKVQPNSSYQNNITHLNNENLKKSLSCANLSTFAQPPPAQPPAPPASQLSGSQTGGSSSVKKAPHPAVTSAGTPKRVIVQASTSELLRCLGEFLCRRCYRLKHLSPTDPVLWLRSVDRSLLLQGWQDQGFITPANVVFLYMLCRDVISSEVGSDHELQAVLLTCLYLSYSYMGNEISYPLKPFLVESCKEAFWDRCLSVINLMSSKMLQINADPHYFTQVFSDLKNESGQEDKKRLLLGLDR
Assay [5] deals with T2, Cyclin-dependent kinase 2/cyclin E1. Briefly: Inhibitory concentration tested against Cyclin dependant kinase 2-cyclinE.
In assay [6] the target is T1, Cyclin-dependent kinase 4/cyclin D1. Briefly: Inhibitory concentration tested against Cyclin dependant kinase 4-cyclinD1.
Assay [7] concerns the target Cyclin-dependent kinase 5/CDK5 activator 1 (Homo sapiens, UniProt Q00535). Briefly: Inhibitory concentration tested against Cyclin-dependent kinase 5.

T1 sequence (P11802 whole entry): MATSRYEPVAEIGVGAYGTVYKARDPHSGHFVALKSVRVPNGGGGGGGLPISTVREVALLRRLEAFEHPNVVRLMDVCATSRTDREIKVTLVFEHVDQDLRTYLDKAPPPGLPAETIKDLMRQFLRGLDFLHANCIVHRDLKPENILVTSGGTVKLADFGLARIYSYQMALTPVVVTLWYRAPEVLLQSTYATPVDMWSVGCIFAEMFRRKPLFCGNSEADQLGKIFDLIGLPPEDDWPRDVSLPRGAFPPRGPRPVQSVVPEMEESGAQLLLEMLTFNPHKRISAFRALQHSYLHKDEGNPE
T1 sequence (P24385 whole entry, further chain): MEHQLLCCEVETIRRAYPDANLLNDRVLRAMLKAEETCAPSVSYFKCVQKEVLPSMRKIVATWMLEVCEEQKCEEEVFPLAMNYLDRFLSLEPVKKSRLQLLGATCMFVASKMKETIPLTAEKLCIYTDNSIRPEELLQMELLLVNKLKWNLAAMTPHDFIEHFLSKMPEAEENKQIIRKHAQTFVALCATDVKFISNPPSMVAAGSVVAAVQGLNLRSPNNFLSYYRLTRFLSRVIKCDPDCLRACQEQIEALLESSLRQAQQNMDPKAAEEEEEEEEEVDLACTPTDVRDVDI
Sequence of Cyclin-dependent kinase 5/CDK5 activator 1 (Homo sapiens, UniProt Q00535) (Q00535 whole entry): as the sequence (Q00535 whole entry) above
Sequence of Cyclin-dependent kinase 5/CDK5 activator 1 (Homo sapiens, UniProt Q00535) (Q15078 whole entry, further chain): as the sequence (Q15078 whole entry) above

For the compound `CC(=O)c1cnc2oc3ccc(O)cc3c2c1-c1ccccc1`, the IC50 was 4.2 µM in assay [1], > 100 µM in assay [2] and > 100 µM in assay [3].
Consider `Cc1cnc2oc3ccc(O)cc3c2c1-c1ccccc1`, for which the IC50 entry was “Not Active” in assay [4], > 100 µM in assay [1], > 100 µM in assay [5] and > 100 µM in assay [6].
`COc1cnc2oc3ccc(O)cc3c2c1-c1ccccc1`: the IC50 is 64.3 µM in assay [1], 80 µM in assay [5], > 100 µM in assay [6] and 6.3 µM in assay [7].
The corresponding values for `CCOc1cnc2oc3ccc(O)cc3c2c1-c1ccccc1` are > 100 µM, > 100 µM, > 100 µM and 5.9 µM.
Turning to `Oc1ccc2oc3ncc(Cl)c(-c4ccccc4)c3c2c1`, the IC50 entry in assay [4] is “Not Active”; in assay [1], > 100 µM; in assay [5], > 100 µM; in assay [6], > 100 µM.
`Oc1ccc2oc3ncc(Br)c(-c4ccccc4)c3c2c1`: the IC50 result in assay [4] was “Not Active”; in assay [1] it was 70.7 µM; in assay [5], 3.2 µM; in assay [6] it was 28.7 µM.
